# Assay results as given in patent publication US20250040554A1, “NEW USES OF PHENMEDIPHAM AND HERBICIDAL COMBINATIONS COMPRISING PHENMEDIPHAM” (BAYER AKTIENGESELLSCHAFT, priority 2021, published 2025).
# Assays:
# Type in all cases: in vivo
# [1] = test system: ECHCG=Echinochloa crus-galli; test: Greenhouse weed control trial ECHCG; conditions: 25 DAA
# Description: (§1) The respective (combinations of) materials were applied to weed plants in the greenhouse or in the field at the respective growth stage indicated hereinafter for the different weed species mentioned below. The respective (combinations of) active ingredients were also applied to corn, cotton and soybean crop plants, and the selectivity (damage) in these crop plants rated (assessed).
# (§2) Visual scoring of the damage to the trial plants took place after the time mentioned in the respective Table—indicated in number of Days After Application (DAA). Damage and development of all above-ground parts of the respective plants was recorded. Visual rating was done on a percentage scale in relation to the untreated control (100%=all plants dead; 50%=green plant biomass reduced by 50%, and 0%=no discernible difference=like control plot).
# (§3) The trials in the greenhouse were sprayed with an application volume of 300 L/ha with an automated track sprayer. The plots in the field were sprayed with an application volume of 140 L/ha with a hand held spray boom.
# (§4) In greenhouse selectivity trials and trials herbicidal activity trials against weed plants were investigated in post-emergence application of the respective material(s).
# (§5) Herbicidal activity against different weeds (undesired plants) was calculated as follows.
# (§6) wherein • A, B=respective value in percent of active ingredient A at a dose rate of a g/ha, ingredient B at a dose rate of b g/ha • E^C=Expected value according to Colby (S. R. Colby; Weeds 15 (1967), 20-22) in % at a dose rate of a+b, each in g/ha • Δ=Difference (in %) between measured value E and expected value E^C (%) (measured value minus expected value)
# (§7) • measured value E is greater than E^C:->synergism (+Δ) • measured value E is equal to E^C:->additive effect • measured value E is smaller than E^C:->antagonism (−Δ)
# (§8) The weed control activity of different (combinations of) materials was investigated in greenhouse trials for the following weed species: • STEME=Stellaria media • ECHCG=Echinochloa crus-galli • BROTE=Bromus tectorum
# (§9) Phenmedipham amd Mesotrione were applied at varying application rates (Dose Rate) to the weed plant species STEME, ECHCG and BROTE. The results are shown in Tables 2a to 2c as the % control when assessed 25 days after application (25 DAA).
# (§10) In all the trials of Table Tables 2a to 2c Mero® (rapeseed oil methyl ester) was added to the respective spray mixture in an amount corresponding to 1 L/ha for PMP, 1 L/ha for MST, and 2 L/ha for mixtures of PMP+MST.
# BROTE=Bromus tectorum = test: Greenhouse weed control trial BROTE; conditions: 25 DAA
# Description: as §1, §2, §3, §4, §5, §6, §7, §8, §9, §10
# AMAVI=Amaranthus viridis = test: Weed control field trial AMAVI
# Description: as §1, §2, §3, §6
# (§11) The growth stages of the different weed species are indicated according to the BBCH monograph “Growth stages of mono- and dicotyledonous plants”, 2nd edition, 2001, ed. Uwe Meier, Federal Biological Research Centre for Agriculture and Forestry (Biologische Bundesanstalt für Land und Forstwirtschaft).
# (§12) After the harmful plants had emerged, they were treated, at the respective growth stage indicated, with the respective materials as indicated at a water application rate of 140 L/ha.
# (§13) After the treatment (21 or 35 days after application of the respective material), the herbicidal activity of respective material was scored visually at the same time by comparing the differently treated plots with the untreated control plots. The score figures of the different plots were averaged.
# (§14) The dose rates of herbicidal ingredients used in each case are indicated for the respective active ingredient and refer to the amount of active ingredient per hectare (g/ha).
# (§15) The weed control activity of different (combinations of) herbicidal active ingredients was investigated in field trials for the following weed species: • AMAVI=Amaranthus viridis • IPOAO=Ipomoea aristolochiaefolia • EPHHL=Euphorbia heterophylla • BIDPI=Bidens pilosa • BRADC=Brachiaria decumbens • ELEIN=Eleusine indica • CCHEC=Cenchrus echinatus
# (§16) The growth stage of AMAVI was BBCH 13, the growth stage of IPOAO was BBCH 15, the growth stage of EPHHL was BBCH 13, the growth stage of BIDPI was BBCH 14, the growth stage of BRADC was BBCH 23, the growth stage of ELEIN was BBCH 11 and the growth stage of CCHEC was BBCH 12 at the time of application of the respective material.
# (§17) Phenmedipham and Mesotrione were applied at varying application rates (Dose Rate) to the different species of weed plants. The results are shown in Tables 3a to 3e as the % control when assessed 21 and 35 days after application (DAA), respectively.
# (§18) In all the trials of Tables 3a to 3e Mero® (rapeseed oil methyl ester) was added to the respective spray mixture in an amount corresponding to 1 L/ha for PMP, 1 L/ha for MST, and 2 L/ha for mixtures of PMP+MST.
# BIDPI=Bidens pilosa = test: Weed control field trial BIDPI
# Description: as §1, §2, §3, §6, §11, §12, §13, §14, §15, §16, §17, §18
# [2] = test system: BRADC=Brachiaria decumbens; test: Weed control field trial BRADC
# Description: as §1, §2, §3, §6, §11, §12, §13, §14, §15, §16, §17, §18
# ELEIN=Eleusine indica = test: Weed control field trial ELEIN
# Description: as §1, §2, §3, §6, §11, §12, §13, §14, §15, §16, §17, §18
# corn (Zea mays, ZEAMX) = test: Field selectivity trial corn; conditions: 35 DAA
# Description: as §1, §2, §3
# Phenmedipham and combinations of phenmedipham and mesotrione were applied at varying application rates (Dose Rate) to the crop plants of non-traited soybean (Glycine max, GLXMA) and corn (Zea mays, ZEAMX). The results are shown in Table 5 as the % damage when assessed 35 days after application (DAA), respectively.
# In all the selectivity trials of Table 5 the adjuvant Mero® (rapeseed oil methyl ester) was added to the respective spray mixture in an amount corresponding to 1 L/ha for PMP, 1 L/ha for MST, and 2 L/ha for mixtures of PMP+MST.
# The herbicidal effects observed for the herbicide(s) are indicated in % activity against the respective weed. The % damage (injury) indicated refers to the maximum damage observed.
smiles,measurement,setting,value
"COC(=O)Nc1cccc(OC(=O)Nc2cccc(C)c2)c1 [PMP, 3-[(methoxyformyl)amino]phenyl (3-methylphenyl)carbamate]",% control ECHCG,[1]; 12.5 g/ha,0%
same,% control ECHCG,[1]; 25 g/ha,0%
same,% control ECHCG,[1]; 50 g/ha,0%
same,% control ECHCG,[1]; 75 g/ha,0%
same,% control ECHCG,[1]; 100 g/ha,0%
same,% control ECHCG,[1]; 125 g/ha,0%
same,% control ECHCG,[1]; 300 g/ha,10%
same,% control BROTE,BROTE=Bromus tectorum; 12.5 g/ha,0%
same,% control BROTE,BROTE=Bromus tectorum; 25 g/ha,0%
same,% control BROTE,BROTE=Bromus tectorum; 50 g/ha,9%
same,% control BROTE,BROTE=Bromus tectorum; 75 g/ha,0%
same,% control BROTE,BROTE=Bromus tectorum; 100 g/ha,0%
same,% control BROTE,BROTE=Bromus tectorum; 125 g/ha,0%
same,% control BROTE,BROTE=Bromus tectorum; 300 g/ha,20%
same,% control AMAVI,"AMAVI=Amaranthus viridis; 75 g/ha, 21 DAA",0%
same,% control AMAVI,"AMAVI=Amaranthus viridis; 75 g/ha, 35 DAA",0%
same,% control AMAVI,"AMAVI=Amaranthus viridis; 100 g/ha, 21 DAA",0%
same,% control AMAVI,"AMAVI=Amaranthus viridis; 100 g/ha, 35 DAA",0%
same,% control AMAVI,"AMAVI=Amaranthus viridis; 125 g/ha, 21 DAA",0%
same,% control AMAVI,"AMAVI=Amaranthus viridis; 125 g/ha, 35 DAA",0%
same,% control AMAVI,"AMAVI=Amaranthus viridis; 250 g/ha, 21 DAA",0%
same,% control AMAVI,"AMAVI=Amaranthus viridis; 250 g/ha, 35 DAA",0%
same,% control BIDPI,"BIDPI=Bidens pilosa; 75 g/ha, 21 DAA",0%
same,% control BIDPI,"BIDPI=Bidens pilosa; 75 g/ha, 35 DAA",0%
same,% control BIDPI,"BIDPI=Bidens pilosa; 100 g/ha, 21 DAA",0%
same,% control BIDPI,"BIDPI=Bidens pilosa; 100 g/ha, 35 DAA",0%
same,% control BIDPI,"BIDPI=Bidens pilosa; 125 g/ha, 21 DAA",0%
same,% control BIDPI,"BIDPI=Bidens pilosa; 125 g/ha, 35 DAA",0%
same,% control BIDPI,"BIDPI=Bidens pilosa; 250 g/ha, 21 DAA",0%
same,% control BIDPI,"BIDPI=Bidens pilosa; 250 g/ha, 35 DAA",0%
same,% control BRADC,"[2]; 75 g/ha, 21 DAA",0%
same,% control BRADC,"[2]; 75 g/ha, 35 DAA",0%
same,% control BRADC,"[2]; 100 g/ha, 21 DAA",0%
same,% control BRADC,"[2]; 100 g/ha, 35 DAA",0%
same,% control BRADC,"[2]; 125 g/ha, 21 DAA",0%
same,% control BRADC,"[2]; 125 g/ha, 35 DAA",0%
same,% control BRADC,"[2]; 250 g/ha, 21 DAA",0%
same,% control BRADC,"[2]; 250 g/ha, 35 DAA",0%
same,% control ELEIN,"ELEIN=Eleusine indica; 75 g/ha, 21 DAA",0%
same,% control ELEIN,"ELEIN=Eleusine indica; 75 g/ha, 35 DAA",0%
same,% control ELEIN,"ELEIN=Eleusine indica; 100 g/ha, 21 DAA",0%
same,% control ELEIN,"ELEIN=Eleusine indica; 100 g/ha, 35 DAA",0%
same,% control ELEIN,"ELEIN=Eleusine indica; 125 g/ha, 21 DAA",0%
same,% control ELEIN,"ELEIN=Eleusine indica; 125 g/ha, 35 DAA",0%
same,% control ELEIN,"ELEIN=Eleusine indica; 250 g/ha, 21 DAA",0%
same,% control ELEIN,"ELEIN=Eleusine indica; 250 g/ha, 35 DAA",0%
same,maximum damage ZEAMX,"corn (Zea mays, ZEAMX); 75 g/ha",6%
same,maximum damage ZEAMX,"corn (Zea mays, ZEAMX); 125 g/ha",6%
same,maximum damage ZEAMX,"corn (Zea mays, ZEAMX); 250 g/ha",6%
"CS(=O)(=O)c1ccc(C(=O)C2C(=O)CCCC2=O)c([N+](=O)[O-])c1 [MST, 2-[4-(methylsulfonyl)-2-nitrobenzoyl]cyclohexane-1,3-dione]",% control ECHCG,[1]; 12.5 g/ha,15%
same,% control ECHCG,[1]; 25 g/ha,28%
same,% control ECHCG,[1]; 50 g/ha,70%
same,% control ECHCG,[1]; 75 g/ha,70%
same,% control BROTE,BROTE=Bromus tectorum; 12.5 g/ha,30%
same,% control BROTE,BROTE=Bromus tectorum; 25 g/ha,30%
same,% control BROTE,BROTE=Bromus tectorum; 50 g/ha,35%
same,% control BROTE,BROTE=Bromus tectorum; 75 g/ha,40%
same,% control AMAVI,"AMAVI=Amaranthus viridis; 25 g/ha, 21 DAA",10%
same,% control AMAVI,"AMAVI=Amaranthus viridis; 25 g/ha, 35 DAA",10%
same,% control AMAVI,"AMAVI=Amaranthus viridis; 50 g/ha, 21 DAA",10%
same,% control AMAVI,"AMAVI=Amaranthus viridis; 50 g/ha, 35 DAA",10%
same,% control BIDPI,"BIDPI=Bidens pilosa; 25 g/ha, 21 DAA",80%
same,% control BIDPI,"BIDPI=Bidens pilosa; 25 g/ha, 35 DAA",80%
same,% control BIDPI,"BIDPI=Bidens pilosa; 50 g/ha, 21 DAA",80%
same,% control BIDPI,"BIDPI=Bidens pilosa; 50 g/ha, 35 DAA",80%
same,% control BRADC,"[2]; 25 g/ha, 21 DAA",0%
same,% control BRADC,"[2]; 25 g/ha, 35 DAA",0%
same,% control BRADC,"[2]; 50 g/ha, 21 DAA",17%
same,% control BRADC,"[2]; 50 g/ha, 35 DAA",13%
same,% control ELEIN,"ELEIN=Eleusine indica; 25 g/ha, 21 DAA",0%
same,% control ELEIN,"ELEIN=Eleusine indica; 25 g/ha, 35 DAA",0%
same,% control ELEIN,"ELEIN=Eleusine indica; 50 g/ha, 21 DAA",17%
same,% control ELEIN,"ELEIN=Eleusine indica; 50 g/ha, 35 DAA",17%
same,maximum damage ZEAMX,"corn (Zea mays, ZEAMX); 25 g/ha",0%
same,maximum damage ZEAMX,"corn (Zea mays, ZEAMX); 50 g/ha",0%
